# Assay results as given in patent US7122543B2, “Substituted benzoic acid derivatives having NF-κB inhibiting action” (Daiichi Suntory Pharma Co., Ltd., priority 2001, dated 2006).
# Test system: NF-κB
# Test: NF-κB luciferase reporter assay in A549/NF-κBLuc cells stimulated with IL-1β
# Assay type: cell-based, human
# Conditions: Homo sapiens, A549, A549/NF-κBLuc cells; compound added 1 hour before IL-1β, 3 hours more incubation; luciferase activity as index
# Protocol: Effects of Compounds on Human Lung Cancer A549 Cells (A549/NF-κBLuc) Stably Transfected with Luciferase Plasmid (pNFκB-Luc, Stratagene, U.S.A.) Having the NF-κB Regulatory Sequence
# Using lipofectamine (Lifetech Oriental K.K., Tokyo), pNFκB-Luc were cotransfected with pSV2neo (Clontech, U.S.A.) into A549 cells (ATCC CCL185) according to the conventional method, and A549/NF-κBLuc stably transfected with pNFκB-Luc were selected by adding G418 sulfate (1 mg/ml, Lifetech Oriental K.K.) to the culture medium.
# A compound prepared in an Example was added to A549/NF-κBLuc, then IL-1β which was able to activate the NF-κB was added at 1 hour thereafter and incubation was continued for 3 hours more. It has been made clear by using a luciferase activity as an index that the compound obtained in the Example suppresses the activation of NF-κB by stimulated with IL-1β.
row,SMILES,IC50 [µg/mL]
1,"COC1=C(OC)C(=O)C(Cc2ccc(-c3cccnc3)c(C(=O)Nc3ccc(C(F)(F)F)cc3)c2)=C(C)C1=O [Example 57, N-[5-(5,6-Dimethoxy-3-methyl-1,4-benzoquinon-2-yl)methyl-2-(3-pyridyl)benzoyl]-4-trifluoromethylaniline]",> 30
2,"COC1=C(OC)C(=O)C(Cc2ccc(-c3ccccc3OC)c(C(=O)Nc3ccc(OC)cc3)c2)=C(C)C1=O [Example 68, N-[5-(5,6-Dimethoxy-3-methyl-1,4-benzoquinon-2-yl)methyl-2-(2-methoxyphenyl)benzoyl]-4-methoxyaniline]",> 45
3,"COC1=C(OC)C(=O)C(Cc2ccc(-c3ccncc3)c(C(=O)Nc3ccc(OC)cc3)c2)=C(C)C1=O [Example 60a, N-[5-(5,6-Dimethoxy-3-methyl-1,4-benzoquinon-2-yl)methyl-2-(4-pyridyl)benzoyl]-4-methoxyaniline]",> 30
4,"CCC(CC)NC(=O)c1cc(CC2=C(C)C(=O)C(OC)=C(OC)C2=O)ccc1-c1ccncc1 [Example 79a, N-[5-(5,6-Dimethoxy-3-methyl-1,4-benzoquinon-2-yl)methyl-2-(4-pyridyl)benzoyl]-1-ethylpropylamine]",> 45
5,"COC1=C(OC)C(=O)C(Cc2ccc(-c3cccnc3)c(C(=O)Nc3ccc(OC)cc3)c2)=C(C)C1=O [Example 56, N-[5-(5,6-Dimethoxy-3-methyl-1,4-benzoquinon-2-yl)methyl-2-(3-pyridyl)benzoyl]-4-methoxy-aniline]",> 45
6,"COC1=C(OC)C(=O)C(Cc2ccc(-c3ccncc3)c(C(=O)N[C@@H](C)c3ccccc3)c2)=C(C)C1=O [Example 74a, (S)-N-[5-(5,6-Dimethoxy-3-methyl-1,4-benzoquinon-2-yl)methyl-2-(4-pyridyl)benzoyl]-1-phenylethylamine]",> 45
7,"COC1=C(OC)C(=O)C(Cc2ccc(C(=O)N3CCOCC3)c(-c3cccnc3)c2)=C(C)C1=O [Example 47, N-[4-(5,6-Dimethoxy-3-methyl-1,4-benzoquinon-2-yl)methyl-2-(3-pyridyl)benzoyl]morpholine]",24
8,"COC1=C(OC)C(=O)C(Cc2ccc(-c3ccc(OC)cc3)c(C(=O)O)c2)=C(C)C1=O [Example 40, 5-(5,6-Dimethoxy-3-methyl-1,4-benzoquinon-2-yl)methyl-2-(4-methoxyphenyl)benzoic acid]",> 45
